Measurements: ChEMBL document CHEMBL5696442, “Discovery of type II inhibitors of TGFβ-activated kinase 1 (TAK1) and mitogen-activated protein kinase kinase kinase kinase 2 (MAP4K2)” (J Med Chem, 2015)
Calls of active or inactive are those of the source. The rule behind the calls is not given here.

Assays:
[1] = target: Serine/threonine-protein kinase 33 (Homo sapiens) (UniProt Q9BYT3); test: Inhibition of STK33 (unknown origin) at 1 uM by Ambit Kinomescan binding assay relative to control
[2] = target: Mitogen-activated protein kinase 14 (Homo sapiens, UniProt Q16539); test: Inhibition of p38 alpha (unknown origin) at 1 uM by Ambit Kinomescan binding assay relative to control; values are per cent of control
Sequence of Mitogen-activated protein kinase 14 (Q16539 whole entry): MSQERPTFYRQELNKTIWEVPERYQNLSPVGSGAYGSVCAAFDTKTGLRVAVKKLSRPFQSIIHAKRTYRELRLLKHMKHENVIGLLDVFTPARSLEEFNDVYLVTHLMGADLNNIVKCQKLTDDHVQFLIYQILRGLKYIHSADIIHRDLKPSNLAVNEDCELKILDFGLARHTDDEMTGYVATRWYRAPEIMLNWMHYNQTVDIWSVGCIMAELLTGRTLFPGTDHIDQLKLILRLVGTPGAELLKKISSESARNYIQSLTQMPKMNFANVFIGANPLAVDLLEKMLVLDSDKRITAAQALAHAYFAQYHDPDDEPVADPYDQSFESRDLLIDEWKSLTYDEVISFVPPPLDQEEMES

[3] = target: Hepatocyte growth factor receptor (Homo sapiens) (UniProt P08581); test: Inhibition of MET (unknown origin) at 10 uM by Ambit Kinomescan binding assay
[4] = target: STE20-like serine/threonine-protein kinase (Homo sapiens) (UniProt Q9H2G2); test: Inhibition of SLK (unknown origin) at 10 uM by Ambit Kinomescan binding assay relative to control; values are per cent of control
Sequence of STE20-like serine/threonine-protein kinase (Homo sapiens) (Q9H2G2 whole entry, looked up): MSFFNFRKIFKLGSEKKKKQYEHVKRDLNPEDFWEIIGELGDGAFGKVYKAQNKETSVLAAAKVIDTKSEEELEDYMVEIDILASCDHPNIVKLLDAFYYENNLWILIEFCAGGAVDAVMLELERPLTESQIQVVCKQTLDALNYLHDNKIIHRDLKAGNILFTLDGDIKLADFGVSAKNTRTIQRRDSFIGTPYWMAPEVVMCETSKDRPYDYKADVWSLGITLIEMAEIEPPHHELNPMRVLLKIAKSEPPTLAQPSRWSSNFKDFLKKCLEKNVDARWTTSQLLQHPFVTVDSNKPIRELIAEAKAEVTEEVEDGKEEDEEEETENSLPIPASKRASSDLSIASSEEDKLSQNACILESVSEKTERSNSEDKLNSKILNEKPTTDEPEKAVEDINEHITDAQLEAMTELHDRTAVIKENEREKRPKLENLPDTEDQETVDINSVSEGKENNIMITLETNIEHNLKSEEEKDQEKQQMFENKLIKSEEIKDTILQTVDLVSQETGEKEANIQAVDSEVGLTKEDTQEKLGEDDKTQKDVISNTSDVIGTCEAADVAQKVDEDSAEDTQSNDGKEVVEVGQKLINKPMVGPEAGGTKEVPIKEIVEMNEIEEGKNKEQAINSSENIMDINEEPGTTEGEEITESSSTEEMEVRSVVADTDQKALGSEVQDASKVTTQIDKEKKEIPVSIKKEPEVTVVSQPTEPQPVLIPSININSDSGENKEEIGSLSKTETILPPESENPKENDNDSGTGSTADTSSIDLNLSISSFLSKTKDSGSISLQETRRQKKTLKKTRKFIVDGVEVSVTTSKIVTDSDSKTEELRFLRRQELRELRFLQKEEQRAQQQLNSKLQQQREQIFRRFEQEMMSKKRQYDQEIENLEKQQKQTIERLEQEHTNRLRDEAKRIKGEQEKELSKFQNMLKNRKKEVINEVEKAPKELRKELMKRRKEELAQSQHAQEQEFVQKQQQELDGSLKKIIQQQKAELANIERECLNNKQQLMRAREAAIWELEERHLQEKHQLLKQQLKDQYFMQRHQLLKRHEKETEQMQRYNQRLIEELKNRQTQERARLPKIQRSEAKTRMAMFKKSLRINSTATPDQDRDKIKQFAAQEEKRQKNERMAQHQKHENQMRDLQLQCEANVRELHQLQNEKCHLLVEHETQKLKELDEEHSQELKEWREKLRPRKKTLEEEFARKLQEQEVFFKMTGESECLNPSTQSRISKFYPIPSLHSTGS

[5] = target: Wee1-like protein kinase (Homo sapiens) (UniProt P30291); test: Inhibition of WEE1 (unknown origin) at 10 uM by Ambit Kinomescan binding assay
Sequence of Wee1-like protein kinase (Homo sapiens) (P30291 whole entry, looked up): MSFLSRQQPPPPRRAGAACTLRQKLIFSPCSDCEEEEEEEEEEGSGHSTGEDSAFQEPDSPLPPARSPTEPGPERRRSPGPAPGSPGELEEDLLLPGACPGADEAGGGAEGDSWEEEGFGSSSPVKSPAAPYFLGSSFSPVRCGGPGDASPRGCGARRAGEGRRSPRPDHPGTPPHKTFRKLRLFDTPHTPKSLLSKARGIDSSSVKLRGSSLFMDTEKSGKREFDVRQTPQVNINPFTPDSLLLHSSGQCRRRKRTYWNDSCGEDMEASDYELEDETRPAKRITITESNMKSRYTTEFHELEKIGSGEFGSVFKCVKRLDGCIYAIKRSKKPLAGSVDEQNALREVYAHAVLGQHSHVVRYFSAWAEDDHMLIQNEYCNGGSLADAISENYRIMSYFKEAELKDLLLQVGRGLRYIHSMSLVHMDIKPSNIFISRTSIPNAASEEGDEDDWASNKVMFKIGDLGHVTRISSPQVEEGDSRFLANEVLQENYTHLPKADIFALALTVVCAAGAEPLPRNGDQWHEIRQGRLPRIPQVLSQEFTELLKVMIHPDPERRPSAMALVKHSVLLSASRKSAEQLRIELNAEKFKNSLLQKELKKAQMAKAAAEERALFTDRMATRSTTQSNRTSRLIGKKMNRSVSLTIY

[6] = target: DNA-dependent protein kinase catalytic subunit (Homo sapiens) (UniProt P78527); test: Inhibition of PRKDC ATP labeling site harbouring KGGSWIQEINVAEK in human Huh-7 cells at 10 uM by KiNativ Profiling analysis relative to control; type: cell-based
[7] = target: Receptor tyrosine-protein kinase erbB-4 (Homo sapiens) (UniProt Q15303); test: Inhibition of ERBB4 (unknown origin) at 10 uM by Ambit Kinomescan binding assay
Sequence of Receptor tyrosine-protein kinase erbB-4 (Homo sapiens) (Q15303 whole entry): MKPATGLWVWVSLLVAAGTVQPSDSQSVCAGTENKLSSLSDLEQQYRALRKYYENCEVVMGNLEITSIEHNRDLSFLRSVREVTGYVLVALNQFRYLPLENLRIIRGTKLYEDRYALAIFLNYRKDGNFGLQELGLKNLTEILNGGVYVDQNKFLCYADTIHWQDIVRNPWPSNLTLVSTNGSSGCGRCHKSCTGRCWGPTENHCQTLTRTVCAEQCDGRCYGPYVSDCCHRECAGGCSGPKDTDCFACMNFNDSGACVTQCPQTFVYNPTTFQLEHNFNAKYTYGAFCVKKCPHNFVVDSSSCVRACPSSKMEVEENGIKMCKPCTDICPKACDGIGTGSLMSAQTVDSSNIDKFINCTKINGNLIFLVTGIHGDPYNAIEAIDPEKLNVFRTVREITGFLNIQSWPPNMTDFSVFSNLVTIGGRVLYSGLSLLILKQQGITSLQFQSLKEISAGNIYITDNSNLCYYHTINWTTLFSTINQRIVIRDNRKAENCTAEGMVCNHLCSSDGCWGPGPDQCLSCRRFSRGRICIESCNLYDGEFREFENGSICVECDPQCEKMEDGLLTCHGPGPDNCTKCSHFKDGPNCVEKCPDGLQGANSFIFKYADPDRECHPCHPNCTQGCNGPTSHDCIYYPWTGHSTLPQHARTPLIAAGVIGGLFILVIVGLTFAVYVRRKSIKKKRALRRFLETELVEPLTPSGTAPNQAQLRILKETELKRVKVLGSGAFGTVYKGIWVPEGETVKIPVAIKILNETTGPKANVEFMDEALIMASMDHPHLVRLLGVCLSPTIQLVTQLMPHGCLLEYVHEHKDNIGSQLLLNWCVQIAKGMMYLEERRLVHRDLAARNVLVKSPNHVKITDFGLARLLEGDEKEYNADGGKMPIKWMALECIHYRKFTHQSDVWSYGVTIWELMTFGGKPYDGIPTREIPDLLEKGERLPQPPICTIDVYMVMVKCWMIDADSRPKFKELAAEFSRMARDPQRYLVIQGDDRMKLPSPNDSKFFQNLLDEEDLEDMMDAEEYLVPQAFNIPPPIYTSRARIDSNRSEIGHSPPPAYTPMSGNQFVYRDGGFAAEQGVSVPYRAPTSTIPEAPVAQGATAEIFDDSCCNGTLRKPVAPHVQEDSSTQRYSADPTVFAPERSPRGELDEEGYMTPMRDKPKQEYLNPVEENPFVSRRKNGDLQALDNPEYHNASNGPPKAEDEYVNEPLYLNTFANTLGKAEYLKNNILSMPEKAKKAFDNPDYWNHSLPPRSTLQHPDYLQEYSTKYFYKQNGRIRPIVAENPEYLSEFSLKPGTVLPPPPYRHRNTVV

[8] = target: cGMP-dependent protein kinase 2 (Homo sapiens) (UniProt Q13237); test: Inhibition of PRKG2 (unknown origin) at 10 uM by Ambit Kinomescan binding assay
Sequence of cGMP-dependent protein kinase 2 (Homo sapiens) (Q13237 whole entry): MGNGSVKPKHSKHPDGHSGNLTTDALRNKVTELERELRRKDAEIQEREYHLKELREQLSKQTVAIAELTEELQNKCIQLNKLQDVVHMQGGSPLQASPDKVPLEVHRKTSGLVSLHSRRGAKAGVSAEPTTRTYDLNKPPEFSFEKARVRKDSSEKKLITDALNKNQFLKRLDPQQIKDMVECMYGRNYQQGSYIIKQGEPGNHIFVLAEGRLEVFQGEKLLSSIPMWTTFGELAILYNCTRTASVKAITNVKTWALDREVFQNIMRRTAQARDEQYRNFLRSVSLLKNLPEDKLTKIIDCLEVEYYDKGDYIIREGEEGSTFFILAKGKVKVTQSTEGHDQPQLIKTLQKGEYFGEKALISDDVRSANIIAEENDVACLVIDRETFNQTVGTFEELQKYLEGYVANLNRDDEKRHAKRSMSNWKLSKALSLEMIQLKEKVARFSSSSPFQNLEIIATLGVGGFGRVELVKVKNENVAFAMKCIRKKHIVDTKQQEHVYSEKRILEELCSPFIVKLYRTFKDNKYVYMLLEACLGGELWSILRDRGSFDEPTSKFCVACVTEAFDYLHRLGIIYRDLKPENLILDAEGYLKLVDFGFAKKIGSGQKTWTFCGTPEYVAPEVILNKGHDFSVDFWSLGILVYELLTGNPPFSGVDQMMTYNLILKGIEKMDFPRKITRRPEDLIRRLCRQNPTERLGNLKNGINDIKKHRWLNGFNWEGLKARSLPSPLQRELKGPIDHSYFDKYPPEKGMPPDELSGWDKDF

[9] = target: T1, Serine/threonine-protein kinase Nek9 (Homo sapiens) (UniProt Q8TD19); test: Inhibition of NEK9 (unknown origin) at 10 uM by Ambit Kinomescan binding assay
T1 sequence (whole entry): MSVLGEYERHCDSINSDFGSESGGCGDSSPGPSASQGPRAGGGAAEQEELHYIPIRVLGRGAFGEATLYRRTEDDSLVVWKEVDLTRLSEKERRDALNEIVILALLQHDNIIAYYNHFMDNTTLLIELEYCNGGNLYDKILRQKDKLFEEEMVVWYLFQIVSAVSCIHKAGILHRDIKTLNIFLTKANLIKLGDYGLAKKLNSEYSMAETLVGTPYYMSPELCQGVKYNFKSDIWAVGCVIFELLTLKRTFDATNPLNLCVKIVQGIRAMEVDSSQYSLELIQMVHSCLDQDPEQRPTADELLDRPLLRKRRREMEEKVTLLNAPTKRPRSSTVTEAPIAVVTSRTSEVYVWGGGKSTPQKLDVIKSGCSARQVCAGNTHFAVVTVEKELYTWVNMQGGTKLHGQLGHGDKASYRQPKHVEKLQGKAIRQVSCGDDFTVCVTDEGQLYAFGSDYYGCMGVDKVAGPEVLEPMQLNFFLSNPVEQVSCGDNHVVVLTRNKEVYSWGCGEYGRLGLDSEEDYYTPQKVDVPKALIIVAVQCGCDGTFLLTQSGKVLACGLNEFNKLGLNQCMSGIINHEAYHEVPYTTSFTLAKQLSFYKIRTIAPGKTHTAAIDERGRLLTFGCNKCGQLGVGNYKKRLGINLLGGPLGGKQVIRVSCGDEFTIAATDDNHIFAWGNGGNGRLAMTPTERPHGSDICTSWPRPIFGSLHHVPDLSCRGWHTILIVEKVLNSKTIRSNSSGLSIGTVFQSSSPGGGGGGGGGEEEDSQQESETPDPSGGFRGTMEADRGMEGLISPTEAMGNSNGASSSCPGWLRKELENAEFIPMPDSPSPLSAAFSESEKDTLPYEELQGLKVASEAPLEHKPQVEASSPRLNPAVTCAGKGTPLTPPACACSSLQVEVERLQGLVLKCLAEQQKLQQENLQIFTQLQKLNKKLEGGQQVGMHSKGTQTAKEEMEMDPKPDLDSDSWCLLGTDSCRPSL

[10] = target: Mitogen-activated protein kinase kinase kinase 1 (Homo sapiens) (UniProt Q13233); test: Inhibition of MAP3K1 Lys2 labeling site in human Huh-7 cell lysate at 1 uM by KiNativ Profiling analysis relative to control; type: subcellular
[11] = target: Tyrosine-protein kinase ABL1 (Homo sapiens, UniProt P00519); test: Inhibition of ABL ACT labeling site in human Huh-7 cells at 1 uM by KiNativ Profiling analysis relative to control; type: cell-based
[12] = target: T2, Eukaryotic translation initiation factor 2-alpha kinase 3 (Homo sapiens) (UniProt Q9NZJ5); test: Inhibition of PEK Lys2 labeling site in human Huh-7 cell lysate at 1 uM by KiNativ Profiling analysis relative to control; type: subcellular
T2 sequence (whole entry): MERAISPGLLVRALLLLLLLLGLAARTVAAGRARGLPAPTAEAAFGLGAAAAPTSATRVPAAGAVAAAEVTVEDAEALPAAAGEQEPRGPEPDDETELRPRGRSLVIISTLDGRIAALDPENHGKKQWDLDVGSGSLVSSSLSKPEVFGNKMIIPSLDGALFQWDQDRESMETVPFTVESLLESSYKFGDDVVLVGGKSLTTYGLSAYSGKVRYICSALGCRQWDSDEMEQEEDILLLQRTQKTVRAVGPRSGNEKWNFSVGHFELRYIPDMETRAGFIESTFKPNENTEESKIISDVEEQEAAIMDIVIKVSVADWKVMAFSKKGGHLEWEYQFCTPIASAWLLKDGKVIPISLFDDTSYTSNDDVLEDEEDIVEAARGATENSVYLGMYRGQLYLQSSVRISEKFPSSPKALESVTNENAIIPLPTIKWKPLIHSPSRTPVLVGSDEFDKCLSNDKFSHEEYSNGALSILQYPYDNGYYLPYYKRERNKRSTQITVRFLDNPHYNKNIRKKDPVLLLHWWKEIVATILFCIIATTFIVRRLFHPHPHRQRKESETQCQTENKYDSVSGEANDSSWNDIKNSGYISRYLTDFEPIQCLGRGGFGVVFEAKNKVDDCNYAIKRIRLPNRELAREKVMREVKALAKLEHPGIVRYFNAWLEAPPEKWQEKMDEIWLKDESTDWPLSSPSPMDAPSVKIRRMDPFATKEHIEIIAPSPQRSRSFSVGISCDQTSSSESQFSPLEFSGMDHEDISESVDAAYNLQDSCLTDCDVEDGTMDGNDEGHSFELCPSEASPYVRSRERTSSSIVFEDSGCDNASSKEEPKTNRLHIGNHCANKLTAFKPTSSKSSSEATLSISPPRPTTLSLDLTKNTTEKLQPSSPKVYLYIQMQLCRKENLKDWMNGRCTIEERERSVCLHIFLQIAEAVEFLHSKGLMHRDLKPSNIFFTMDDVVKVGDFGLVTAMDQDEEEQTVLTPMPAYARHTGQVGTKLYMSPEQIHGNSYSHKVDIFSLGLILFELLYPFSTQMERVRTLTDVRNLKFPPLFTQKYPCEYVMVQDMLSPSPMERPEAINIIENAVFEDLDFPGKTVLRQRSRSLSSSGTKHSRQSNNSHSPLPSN

Sequence of Serine/threonine-protein kinase 33 (Homo sapiens) (Q9BYT3 whole entry, looked up): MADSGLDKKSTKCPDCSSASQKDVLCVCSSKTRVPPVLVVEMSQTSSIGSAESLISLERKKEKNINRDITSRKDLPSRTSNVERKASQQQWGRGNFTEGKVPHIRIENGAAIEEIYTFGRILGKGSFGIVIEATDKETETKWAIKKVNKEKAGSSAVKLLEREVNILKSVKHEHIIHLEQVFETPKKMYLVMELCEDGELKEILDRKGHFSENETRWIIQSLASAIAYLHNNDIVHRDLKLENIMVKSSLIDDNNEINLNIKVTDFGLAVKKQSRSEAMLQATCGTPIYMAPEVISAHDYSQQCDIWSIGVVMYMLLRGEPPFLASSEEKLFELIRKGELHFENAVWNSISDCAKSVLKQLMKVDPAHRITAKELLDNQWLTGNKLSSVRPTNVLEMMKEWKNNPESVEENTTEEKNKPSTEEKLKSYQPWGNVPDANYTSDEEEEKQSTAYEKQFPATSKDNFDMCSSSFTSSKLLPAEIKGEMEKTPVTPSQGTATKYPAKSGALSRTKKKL

With `CCN1CCN(Cc2ccc(NC(=O)c3ccc(C)c(/C=C/c4cnc5[nH]ccc5c4OC)c3)cc2C(F)(F)F)CC1` the inhibition [1] was 78% and the residual activity [2] was 1.7%.
For `CCN1CCN(Cc2ccc(NC(=O)c3ccc(C)c(Oc4ccnc5[nH]ccc45)c3)cc2C(F)(F)F)CC1`, the inhibition [3] was “inactive”, the residual activity [4] was 2% and the inhibition [5] was “inactive”. For the same molecule, the inhibition [6] was 0.2%, the inhibition [7] was 28% and the inhibition [8] was “inactive”. The inhibition [9] was “inactive”.
`CNc1cc(Oc2cc(C(=O)Nc3cc(N4CCN(C)CC4)cc(C(F)(F)F)c3)ccc2C)ncn1` showed an inhibition [10] of -2.3%, an inhibition [11] of 31.6% and an inhibition [12] of -6.7%.
